Laboratory results published in patent US20260200947A1, “FUSED CYCLIC COMPOUNDS AND USE THEREOF” (Jacobio Pharmaceuticals Co., Ltd., priority 2022, published 2026).

Tested on: SW620 cells (K-Ras G12V)
Experiment: Phospho-ERK1/2(THR202/TYR204) HTRF assay, SW620
Format: cell-based
Settings: 2 hours incubation, read-out: pERK, IC50, SW620
Method: Each of cells in culture medium was seeded in 96-well plates at density indicated in Table 4 and put in a cell incubator to incubate overnight. The next day, the culture medium was removed and the compound diluted in assay medium was added in each well. […] 10 μL of cell lysates from the 96-well plates were transferred to a 384-well plate (Greiner) containing 2.5 μL/well HTRF® pre-mixed antibodies (Cisbio 64AERPEH). The plate was incubated 4 hours at 25° C. and read HTRF signals on Tecan Spark multimode microplate reader. The data were analyzed using a 4-parameter logistic model to calculate IC50 values.

**Q.** For `C#Cc1c(F)ccc2cc(N)cc(-c3c(Cl)c4c5c(nc(OCC67CCCN6CC(F)C7)nc5c3F)N3CCCOCC3CO4)c12` (single isomer, unassigned) [Compound 11B], which IC50 is on record?
**A.** Its IC50 is 53.5 nM.

Tested on: not listed separately
Experiment: Mouse pharmacokinetic study
Format: in vivo
Settings: Balb/c mouse (female), 3 mg/kg, iv, plasma
Method: The purpose of this study was to evaluate the pharmacokinetic properties of compounds in Balb/c mouse (female) following single dose administration. Six mice were needed for each compound and the six mice were divided into two groups (n=3/group), group A and group B. Mice in group A were treated with a single 3 mg/kg dose of compound (iv). Mice in group B were treated with a single 10 mg/kg dose of compound (po). Foreach mouse in group A, blood samples were collected at the time point of 0.083 h 0.5 h, 1 h, 2 h, 4 h, 8 h and 24 h post-dose. For each mouse in group B, blood samples were collected at the time point of 0.25 h, 0.5 h, 1 h, 2 h, 4 h, 8 h and 24 h post-dose. Blood samples were placed on ice until centrifugation to obtain plasma samples. The plasma samples were stored at −80° C. until analysis. The concentration of compound in plasma samples was determined using a LC-MS/MS method.

**Q.** What does the source list for `N#Cc1c(N)sc2c(F)ccc(-c3c(Cl)c4c5c(nc(OCC67CCCN6CC(F)C7)nc5c3F)N3CCCOCC3CO4)c12` (single isomer, unassigned) [Compound 66B]?
**A.** AUC0-24 h: 8951 ng·h/mL; Cl_obs: 5.77 mL/min/kg

Same assay, conditions: Balb/c mouse (female), 10 mg/kg po vs 3 mg/kg iv

**Q.** For `N#Cc1c(N)sc2c(F)ccc(-c3c(Cl)c4c5c(nc(OCC67CCCN6CC(F)C7)nc5c3F)N3CCCOCC3CO4)c12` (single isomer, unassigned) [Compound 66B], which F is on record?
**A.** The F was 10.8%.

Same assay, conditions: Balb/c mouse (female), 10 mg/kg, po, plasma

**Q.** For `N#Cc1c(N)sc2c(F)ccc(-c3c(Cl)c4c5c(nc(OCC67CCCN6CC(F)C7)nc5c3F)N3CCCOCC3CO4)c12` (single isomer, unassigned) [Compound 66B], which AUC0-24 h is on record?
**A.** Its AUC0-24 h is 3217 ng·h/mL.

**Q.** What about the Cmax of the same molecule?
**A.** Its Cmax is 1175 ng/mL.

Tested on: Capan-2 cells (K-Ras G12V)
Experiment: not given
Settings: not given

**Q.** Which IC50 does the source give for `C#Cc1c(F)ccc2cc(N)cc(-c3nc4c5c(nc(OCC67CCCN6CC(F)C7)nc5c3F)N3C(C(F)F)CCOCC3N4C)c12` (stereo not shown) [Compound 52B] here?
**A.** The IC50 was 2.01 nM.

**Q.** With `N#Cc1c(N)sc2c(F)ccc(-c3c(Cl)c4c5c(nc(OCC67CCCN6CC(F)C7)nc5c3F)N3CCCOCC3CO4)c12` (single isomer, unassigned) [Compound 66B] as the molecule, how does the IC50 read?
**A.** Its IC50 is 1.94 nM.

**Q.** With `C#Cc1c(F)ccc2cc(N)cc(-c3nc4c5c(nc(OCC67CC(=C)CN6CC(OC)C7)nc5c3F)N3CCCOCC3N4C)c12` (stereo not shown) [Compound 169] as the molecule, how does the IC50 read?
**A.** Its IC50 is 0.778 nM.

**Q.** For `C#Cc1c(F)ccc2cc(N)cc(-c3nc4c5c(nc(OC[C@@]67CCCN6C[C@H](F)C7)nc5c3F)N3CCC=C[C@H](F)[C@H]3N4C)c12` [Compound 108A], which IC50 is on record?
**A.** The IC50 was 8.81 nM.

Tested on: AsPC-1 cells (K-Ras G12D)
Experiment: not given
Settings: not given

**Q.** For `C#Cc1c(F)ccc2cc(N)cc(-c3nc4c5c(nc(OCC67CCCN6CC(F)C7)nc5c3F)N3C(C(F)F)CCOCC3N4C)c12` (stereo not shown) [Compound 52B], which IC50 is on record?
**A.** Its IC50 is 111 nM.

**Q.** With `N#Cc1c(N)sc2c(F)ccc(-c3c(Cl)c4c5c(nc(OCC67CCCN6CC(F)C7)nc5c3F)N3CCCOCC3CO4)c12` (single isomer, unassigned) [Compound 66B] as the molecule, how does the IC50 read?
**A.** The IC50 was 5.91 nM.

**Q.** With `C#Cc1c(F)ccc2cc(N)cc(-c3nc4c5c(nc(OCC67CC(=C)CN6CC(OC)C7)nc5c3F)N3CCCOCC3N4C)c12` (stereo not shown) [Compound 169] as the molecule, how does the IC50 read?
**A.** Its IC50 is 93.6 nM.

**Q.** Which IC50 does the source give for `C#Cc1c(F)ccc2cc(N)cc(-c3c(Cl)c4c5c(nc(OCC67CCCN6CC(F)C7)nc5c3F)N3CCCOCC3CO4)c12` (single isomer, unassigned) [Compound 11B] here?
**A.** Its IC50 is 806 nM.

**Q.** With `C#Cc1c(F)ccc2cc(N)cc(-c3nc4c5c(nc(OC[C@@]67CCCN6C[C@H](F)C7)nc5c3F)N3CCC=C[C@H](F)[C@H]3N4C)c12` [Compound 108A] as the molecule, how does the IC50 read?
**A.** Its IC50 is 62.7 nM.

Tested on: SW620 cells (K-Ras G12V)
Experiment: not given
Settings: not given

**Q.** For `C#Cc1c(F)ccc2cc(N)cc(-c3nc4c5c(nc(OCC67CCCN6CC(F)C7)nc5c3F)N3C(C(F)F)CCOCC3N4C)c12` (stereo not shown) [Compound 52B], which IC50 is on record?
**A.** The IC50 was 29.5 nM.

**Q.** Which IC50 does the source give for `N#Cc1c(N)sc2c(F)ccc(-c3c(Cl)c4c5c(nc(OCC67CCCN6CC(F)C7)nc5c3F)N3CCCOCC3CO4)c12` (single isomer, unassigned) [Compound 66B] here?
**A.** Its IC50 is 2.22 nM.

**Q.** For `C#Cc1c(F)ccc2cc(N)cc(-c3nc4c5c(nc(OCC67CC(=C)CN6CC(OC)C7)nc5c3F)N3CCCOCC3N4C)c12` (stereo not shown) [Compound 169], which IC50 is on record?
**A.** Its IC50 is 15.2 nM.

**Q.** With `C#Cc1c(F)ccc2cc(N)cc(-c3c(Cl)c4c5c(nc(OCC67CCCN6CC(F)C7)nc5c3F)N3CCCOCC3CO4)c12` (single isomer, unassigned) [Compound 11B] as the molecule, how does the IC50 read?
**A.** The IC50 was 117 nM.

**Q.** Which IC50 does the source give for `C#Cc1c(F)ccc2cc(N)cc(-c3nc4c5c(nc(OC[C@@]67CCCN6C[C@H](F)C7)nc5c3F)N3CCC=C[C@H](F)[C@H]3N4C)c12` [Compound 108A] here?
**A.** Its IC50 is 15.8 nM.

Target: GppNp-KRAS G12D (Homo sapiens, UniProt P01116, G12D)
Sequence (P01116 1-169 isoform P01116-2 G12D): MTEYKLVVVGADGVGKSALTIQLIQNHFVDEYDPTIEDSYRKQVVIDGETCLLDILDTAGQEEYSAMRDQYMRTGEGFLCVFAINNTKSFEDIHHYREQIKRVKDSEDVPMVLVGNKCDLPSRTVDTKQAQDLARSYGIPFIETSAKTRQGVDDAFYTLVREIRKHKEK
Experiment: GTP-K-Ras and cRAF interaction assay, GppNp-KRAS G12D
Settings: read-out: Biochemical assays, IC50, KRAS G12D GppNp; GppNp-loaded K-Ras G12D, cRAF RBD interaction, HTRF

**Q.** With `C#Cc1c(F)ccc2cc(N)cc(-c3nc4c5c(nc(OCC67CCCN6CC(F)C7)nc5c3F)N3C(C(F)F)CCOCC3N4C)c12` (stereo not shown) [Compound 52B] as the molecule, how does the IC50 read?
**A.** Its IC50 is 302 nM.

**Q.** With `N#Cc1c(N)sc2c(F)ccc(-c3c(Cl)c4c5c(nc(OCC67CCCN6CC(F)C7)nc5c3F)N3CCCOCC3CO4)c12` (single isomer, unassigned) [Compound 66B] as the molecule, how does the IC50 read?
**A.** Its IC50 is 4.06 nM.

**Q.** With `C#Cc1c(F)ccc2cc(N)cc(-c3nc4c5c(nc(OCC67CC(=C)CN6CC(OC)C7)nc5c3F)N3CCCOCC3N4C)c12` (stereo not shown) [Compound 169] as the molecule, how does the IC50 read?
**A.** The IC50 was 164 nM.

**Q.** Which IC50 does the source give for `C#Cc1c(F)ccc2cc(N)cc(-c3c(Cl)c4c5c(nc(OCC67CCCN6CC(F)C7)nc5c3F)N3CCCOCC3CO4)c12` (single isomer, unassigned) [Compound 11B] here?
**A.** The IC50 was 233 nM.

**Q.** For `C#Cc1c(F)ccc2cc(N)cc(-c3nc4c5c(nc(OC[C@@]67CCCN6C[C@H](F)C7)nc5c3F)N3CCC=C[C@H](F)[C@H]3N4C)c12` [Compound 108A], which IC50 is on record?
**A.** The IC50 was 106 nM.

Target: GppNp-KRAS G12V (Homo sapiens, UniProt P01116, G12V)
Sequence (P01116 1-169 isoform P01116-2 G12V): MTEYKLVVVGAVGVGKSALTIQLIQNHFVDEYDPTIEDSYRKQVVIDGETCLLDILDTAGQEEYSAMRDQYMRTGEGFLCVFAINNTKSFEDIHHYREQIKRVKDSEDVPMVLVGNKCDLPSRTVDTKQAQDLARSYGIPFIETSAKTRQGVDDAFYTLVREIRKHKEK
Experiment: GTP-K-Ras and cRAF interaction assay, GppNp-KRAS G12V
Settings: read-out: Biochemical assays, IC50, KRAS G12V GppNp; GppNp-loaded K-Ras G12V, cRAF RBD interaction, HTRF

**Q.** With `C#Cc1c(F)ccc2cc(N)cc(-c3nc4c5c(nc(OCC67CCCN6CC(F)C7)nc5c3F)N3C(C(F)F)CCOCC3N4C)c12` (stereo not shown) [Compound 52B] as the molecule, how does the IC50 read?
**A.** The IC50 was 622 nM.

**Q.** Which IC50 does the source give for `N#Cc1c(N)sc2c(F)ccc(-c3c(Cl)c4c5c(nc(OCC67CCCN6CC(F)C7)nc5c3F)N3CCCOCC3CO4)c12` (single isomer, unassigned) [Compound 66B] here?
**A.** The IC50 was 8.62 nM.

**Q.** With `C#Cc1c(F)ccc2cc(N)cc(-c3nc4c5c(nc(OCC67CC(=C)CN6CC(OC)C7)nc5c3F)N3CCCOCC3N4C)c12` (stereo not shown) [Compound 169] as the molecule, how does the IC50 read?
**A.** The IC50 was 245 nM.

**Q.** With `C#Cc1c(F)ccc2cc(N)cc(-c3c(Cl)c4c5c(nc(OCC67CCCN6CC(F)C7)nc5c3F)N3CCCOCC3CO4)c12` (single isomer, unassigned) [Compound 11B] as the molecule, how does the IC50 read?
**A.** Its IC50 is 311 nM.

**Q.** For `C#Cc1c(F)ccc2cc(N)cc(-c3nc4c5c(nc(OC[C@@]67CCCN6C[C@H](F)C7)nc5c3F)N3CCC=C[C@H](F)[C@H]3N4C)c12` [Compound 108A], which IC50 is on record?
**A.** The IC50 was 214 nM.

Target: GDP-KRAS G12D (Homo sapiens, UniProt P01116, G12D)
Sequence (P01116 1-169 isoform P01116-2 G12D): as the sequence (P01116 1-169 isoform P01116-2 G12D) above
Experiment: SOS1 catalyzed nucleotide exchange assay, GDP-KRAS G12D
Settings: read-out: Biochemical assays, IC50, KRAS G12D GDP, GDP form K-Ras G12D, TR-FRET

**Q.** Which IC50 does the source give for `C#Cc1c(F)ccc2cc(N)cc(-c3nc4c5c(nc(OCC67CCCN6CC(F)C7)nc5c3F)N3C(C(F)F)CCOCC3N4C)c12` (stereo not shown) [Compound 52B] here?
**A.** Its IC50 is 3.25 nM.

**Q.** With `N#Cc1c(N)sc2c(F)ccc(-c3c(Cl)c4c5c(nc(OCC67CCCN6CC(F)C7)nc5c3F)N3CCCOCC3CO4)c12` (single isomer, unassigned) [Compound 66B] as the molecule, how does the IC50 read?
**A.** The IC50 was 0.983 nM.

**Q.** Which IC50 does the source give for `C#Cc1c(F)ccc2cc(N)cc(-c3nc4c5c(nc(OCC67CC(=C)CN6CC(OC)C7)nc5c3F)N3CCCOCC3N4C)c12` (stereo not shown) [Compound 169] here?
**A.** Its IC50 is 1.67 nM.

**Q.** Which IC50 does the source give for `C#Cc1c(F)ccc2cc(N)cc(-c3c(Cl)c4c5c(nc(OCC67CCCN6CC(F)C7)nc5c3F)N3CCCOCC3CO4)c12` (single isomer, unassigned) [Compound 11B] here?
**A.** Its IC50 is 5.69 nM.

**Q.** With `C#Cc1c(F)ccc2cc(N)cc(-c3nc4c5c(nc(OC[C@@]67CCCN6C[C@H](F)C7)nc5c3F)N3CCC=C[C@H](F)[C@H]3N4C)c12` [Compound 108A] as the molecule, how does the IC50 read?
**A.** Its IC50 is 3.32 nM.

Target: GDP-KRAS G12V (Homo sapiens, UniProt P01116, G12V)
Sequence (P01116 1-169 isoform P01116-2 G12V): as the sequence (P01116 1-169 isoform P01116-2 G12V) above
Experiment: SOS1 catalyzed nucleotide exchange assay, GDP-KRAS G12V
Settings: read-out: Biochemical assays, IC50, KRAS G12V GDP, GDP form K-Ras G12V, TR-FRET

**Q.** For `C#Cc1c(F)ccc2cc(N)cc(-c3nc4c5c(nc(OCC67CCCN6CC(F)C7)nc5c3F)N3C(C(F)F)CCOCC3N4C)c12` (stereo not shown) [Compound 52B], which IC50 is on record?
**A.** The IC50 was 1.97 nM.

**Q.** For `N#Cc1c(N)sc2c(F)ccc(-c3c(Cl)c4c5c(nc(OCC67CCCN6CC(F)C7)nc5c3F)N3CCCOCC3CO4)c12` (single isomer, unassigned) [Compound 66B], which IC50 is on record?
**A.** Its IC50 is 0.924 nM.

**Q.** With `C#Cc1c(F)ccc2cc(N)cc(-c3nc4c5c(nc(OCC67CC(=C)CN6CC(OC)C7)nc5c3F)N3CCCOCC3N4C)c12` (stereo not shown) [Compound 169] as the molecule, how does the IC50 read?
**A.** Its IC50 is 3.33 nM.

**Q.** Which IC50 does the source give for `C#Cc1c(F)ccc2cc(N)cc(-c3c(Cl)c4c5c(nc(OCC67CCCN6CC(F)C7)nc5c3F)N3CCCOCC3CO4)c12` (single isomer, unassigned) [Compound 11B] here?
**A.** The IC50 was 3.92 nM.

**Q.** Which IC50 does the source give for `C#Cc1c(F)ccc2cc(N)cc(-c3nc4c5c(nc(OC[C@@]67CCCN6C[C@H](F)C7)nc5c3F)N3CCC=C[C@H](F)[C@H]3N4C)c12` [Compound 108A] here?
**A.** Its IC50 is 2.95 nM.
